Assay: Anticancer human tumor 997537-175-T-J1-PDC patient-derived colon adenocarcinoma cell line growth inhibition [POLQ]
Settings: 997537-175-T-J1-PDC complex spheroid viability, combination with POLQ inhibitors; curve of first compound; second compound 0.0316 µM
Summary of the method: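 Growth inhibition in 3D: complex spheroids (tumor PDC, HUVEC, MSC) treated with POLQ inhibitor combinations; where Cmax unknown, highest tested concentration 10 microM, except SN-38 at 1 microM.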
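Also: luminescence signal used as a surrogate for viable cells; spheroids exposed to drugs for seven days before readout.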

Row | Structure (SMILES) | IC50
1 | Nc1ccn(C2OC(CO)C(O)C2(F)F)c(=O)n1 (configuration not stated) + Nc1ccc(C#CCN(C(=O)Cc2ncc(C(F)(F)F)cc2C(F)(F)F)c2ccc(F)cc2)nn1 | > 10 µM
2 | CCCS(=O)(=O)Nc1ccc(F)c(C(=O)c2c[nH]c3ncc(-c4ccc(Cl)cc4)cc23)c1F + Nc1ccc(C#CCN(C(=O)Cc2ncc(C(F)(F)F)cc2C(F)(F)F)c2ccc(F)cc2)nn1 | 5.51 µM
3 | O=c1[nH]cc(F)c(=O)[nH]1 + COC1C(OC(N)=O)C(O)C(Oc2ccc3c(O)c(NC(=O)c4ccc(O)c(CC=C(C)C)c4)c(=O)oc3c2C)OC1(C)C | > 10 µM
4 | O=c1[nH]cc(F)c(=O)[nH]1 + Nc1ccc(C#CCN(C(=O)Cc2ncc(C(F)(F)F)cc2C(F)(F)F)c2ccc(F)cc2)nn1 | > 10 µM
5 | COc1ccc([C@@H](O)c2cc(-c3ncnc4cc(N5CCOCC5)ccc34)c(F)cc2Cl)nn1 + Cc1cccc(N(C)C(=O)C2C(O)CCN2c2nc(C)cc(C(F)(F)F)c2C#N)c1 | > 10 µM

Same assay, conditions: 997537-175-T-J1-PDC complex spheroid viability, combination with POLQ inhibitors; curve of first compound; second compound 0.1 µM

Row | Structure (SMILES) | IC50
6 | Nc1ccn(C2OC(CO)C(O)C2(F)F)c(=O)n1 (configuration not stated) + Nc1ccc(C#CCN(C(=O)Cc2ncc(C(F)(F)F)cc2C(F)(F)F)c2ccc(F)cc2)nn1 | > 10 µM
7 | CCCS(=O)(=O)Nc1ccc(F)c(C(=O)c2c[nH]c3ncc(-c4ccc(Cl)cc4)cc23)c1F + Nc1ccc(C#CCN(C(=O)Cc2ncc(C(F)(F)F)cc2C(F)(F)F)c2ccc(F)cc2)nn1 | 7.31 µM
8 | O=c1[nH]cc(F)c(=O)[nH]1 + COC1C(OC(N)=O)C(O)C(Oc2ccc3c(O)c(NC(=O)c4ccc(O)c(CC=C(C)C)c4)c(=O)oc3c2C)OC1(C)C | > 10 µM
9 | O=c1[nH]cc(F)c(=O)[nH]1 + Nc1ccc(C#CCN(C(=O)Cc2ncc(C(F)(F)F)cc2C(F)(F)F)c2ccc(F)cc2)nn1 | > 10 µM
10 | COc1ccc([C@@H](O)c2cc(-c3ncnc4cc(N5CCOCC5)ccc34)c(F)cc2Cl)nn1 + Cc1cccc(N(C)C(=O)C2C(O)CCN2c2nc(C)cc(C(F)(F)F)c2C#N)c1 | > 10 µM

Same assay, conditions: 997537-175-T-J1-PDC complex spheroid viability, combination with POLQ inhibitors; curve of first compound; second compound 0.316 µM

Row | Structure (SMILES) | IC50
11 | Nc1ccn(C2OC(CO)C(O)C2(F)F)c(=O)n1 (configuration not stated) + Nc1ccc(C#CCN(C(=O)Cc2ncc(C(F)(F)F)cc2C(F)(F)F)c2ccc(F)cc2)nn1 | > 10 µM
12 | CCCS(=O)(=O)Nc1ccc(F)c(C(=O)c2c[nH]c3ncc(-c4ccc(Cl)cc4)cc23)c1F + Nc1ccc(C#CCN(C(=O)Cc2ncc(C(F)(F)F)cc2C(F)(F)F)c2ccc(F)cc2)nn1 | 5.97 µM
13 | O=c1[nH]cc(F)c(=O)[nH]1 + COC1C(OC(N)=O)C(O)C(Oc2ccc3c(O)c(NC(=O)c4ccc(O)c(CC=C(C)C)c4)c(=O)oc3c2C)OC1(C)C | > 10 µM
14 | O=c1[nH]cc(F)c(=O)[nH]1 + Nc1ccc(C#CCN(C(=O)Cc2ncc(C(F)(F)F)cc2C(F)(F)F)c2ccc(F)cc2)nn1 | > 10 µM
15 | COc1ccc([C@@H](O)c2cc(-c3ncnc4cc(N5CCOCC5)ccc34)c(F)cc2Cl)nn1 + Cc1cccc(N(C)C(=O)C2C(O)CCN2c2nc(C)cc(C(F)(F)F)c2C#N)c1 | > 10 µM

Same assay, conditions: 997537-175-T-J1-PDC complex spheroid viability, combination with POLQ inhibitors; curve of first compound; second compound 1 µM

Row | Structure (SMILES) | IC50
16 | Nc1ccn(C2OC(CO)C(O)C2(F)F)c(=O)n1 (configuration not stated) + Nc1ccc(C#CCN(C(=O)Cc2ncc(C(F)(F)F)cc2C(F)(F)F)c2ccc(F)cc2)nn1 | > 10 µM
17 | CCCS(=O)(=O)Nc1ccc(F)c(C(=O)c2c[nH]c3ncc(-c4ccc(Cl)cc4)cc23)c1F + Nc1ccc(C#CCN(C(=O)Cc2ncc(C(F)(F)F)cc2C(F)(F)F)c2ccc(F)cc2)nn1 | 5.25 µM
18 | O=c1[nH]cc(F)c(=O)[nH]1 + COC1C(OC(N)=O)C(O)C(Oc2ccc3c(O)c(NC(=O)c4ccc(O)c(CC=C(C)C)c4)c(=O)oc3c2C)OC1(C)C | > 10 µM
19 | O=c1[nH]cc(F)c(=O)[nH]1 + Nc1ccc(C#CCN(C(=O)Cc2ncc(C(F)(F)F)cc2C(F)(F)F)c2ccc(F)cc2)nn1 | > 10 µM
20 | COc1ccc([C@@H](O)c2cc(-c3ncnc4cc(N5CCOCC5)ccc34)c(F)cc2Cl)nn1 + Cc1cccc(N(C)C(=O)C2C(O)CCN2c2nc(C)cc(C(F)(F)F)c2C#N)c1 | > 10 µM

Same assay, conditions: 997537-175-T-J1-PDC complex spheroid viability, combination with POLQ inhibitors; curve of first compound; second compound 3.16 µM

Row | Structure (SMILES) | IC50
21 | Nc1ccn(C2OC(CO)C(O)C2(F)F)c(=O)n1 (configuration not stated) + Nc1ccc(C#CCN(C(=O)Cc2ncc(C(F)(F)F)cc2C(F)(F)F)c2ccc(F)cc2)nn1 | > 10 µM
22 | CCCS(=O)(=O)Nc1ccc(F)c(C(=O)c2c[nH]c3ncc(-c4ccc(Cl)cc4)cc23)c1F + Nc1ccc(C#CCN(C(=O)Cc2ncc(C(F)(F)F)cc2C(F)(F)F)c2ccc(F)cc2)nn1 | 6 µM
23 | O=c1[nH]cc(F)c(=O)[nH]1 + COC1C(OC(N)=O)C(O)C(Oc2ccc3c(O)c(NC(=O)c4ccc(O)c(CC=C(C)C)c4)c(=O)oc3c2C)OC1(C)C | > 10 µM
24 | O=c1[nH]cc(F)c(=O)[nH]1 + Nc1ccc(C#CCN(C(=O)Cc2ncc(C(F)(F)F)cc2C(F)(F)F)c2ccc(F)cc2)nn1 | > 10 µM
25 | COc1ccc([C@@H](O)c2cc(-c3ncnc4cc(N5CCOCC5)ccc34)c(F)cc2Cl)nn1 + Cc1cccc(N(C)C(=O)C2C(O)CCN2c2nc(C)cc(C(F)(F)F)c2C#N)c1 | > 10 µM

Same assay, conditions: 997537-175-T-J1-PDC complex spheroid viability, combination with POLQ inhibitors; curve of first compound; second compound 10 µM

Row | Structure (SMILES) | IC50
26 | Nc1ccn(C2OC(CO)C(O)C2(F)F)c(=O)n1 (configuration not stated) + Nc1ccc(C#CCN(C(=O)Cc2ncc(C(F)(F)F)cc2C(F)(F)F)c2ccc(F)cc2)nn1 | > 10 µM
27 | CCCS(=O)(=O)Nc1ccc(F)c(C(=O)c2c[nH]c3ncc(-c4ccc(Cl)cc4)cc23)c1F + Nc1ccc(C#CCN(C(=O)Cc2ncc(C(F)(F)F)cc2C(F)(F)F)c2ccc(F)cc2)nn1 | 6.76 µM
28 | O=c1[nH]cc(F)c(=O)[nH]1 + COC1C(OC(N)=O)C(O)C(Oc2ccc3c(O)c(NC(=O)c4ccc(O)c(CC=C(C)C)c4)c(=O)oc3c2C)OC1(C)C | > 10 µM
29 | O=c1[nH]cc(F)c(=O)[nH]1 + Nc1ccc(C#CCN(C(=O)Cc2ncc(C(F)(F)F)cc2C(F)(F)F)c2ccc(F)cc2)nn1 | > 10 µM
30 | COc1ccc([C@@H](O)c2cc(-c3ncnc4cc(N5CCOCC5)ccc34)c(F)cc2Cl)nn1 + Cc1cccc(N(C)C(=O)C2C(O)CCN2c2nc(C)cc(C(F)(F)F)c2C#N)c1 | > 10 µM

Same assay, conditions: 997537-175-T-J1-PDC complex spheroid viability, combination with POLQ inhibitors; second compound 0.0316 µM; first compound 0.0316 µM; stronger effect = lower value

Row | Structure (SMILES) | viability, T/C
31 | Nc1ccn(C2OC(CO)C(O)C2(F)F)c(=O)n1 (configuration not stated) + Nc1ccc(C#CCN(C(=O)Cc2ncc(C(F)(F)F)cc2C(F)(F)F)c2ccc(F)cc2)nn1 | 92.5%
32 | CCCS(=O)(=O)Nc1ccc(F)c(C(=O)c2c[nH]c3ncc(-c4ccc(Cl)cc4)cc23)c1F + Nc1ccc(C#CCN(C(=O)Cc2ncc(C(F)(F)F)cc2C(F)(F)F)c2ccc(F)cc2)nn1 | 81.8%
33 | O=c1[nH]cc(F)c(=O)[nH]1 + COC1C(OC(N)=O)C(O)C(Oc2ccc3c(O)c(NC(=O)c4ccc(O)c(CC=C(C)C)c4)c(=O)oc3c2C)OC1(C)C | 102%
34 | O=c1[nH]cc(F)c(=O)[nH]1 + Nc1ccc(C#CCN(C(=O)Cc2ncc(C(F)(F)F)cc2C(F)(F)F)c2ccc(F)cc2)nn1 | 98.7%
35 | COc1ccc([C@@H](O)c2cc(-c3ncnc4cc(N5CCOCC5)ccc34)c(F)cc2Cl)nn1 + Cc1cccc(N(C)C(=O)C2C(O)CCN2c2nc(C)cc(C(F)(F)F)c2C#N)c1 | 102%

Same assay, conditions: 997537-175-T-J1-PDC complex spheroid viability, combination with POLQ inhibitors; second compound 0.0316 µM; first compound 0.1 µM; stronger effect = lower value

Row | Structure (SMILES) | viability, T/C
36 | Nc1ccn(C2OC(CO)C(O)C2(F)F)c(=O)n1 (configuration not stated) + Nc1ccc(C#CCN(C(=O)Cc2ncc(C(F)(F)F)cc2C(F)(F)F)c2ccc(F)cc2)nn1 | 100%
37 | CCCS(=O)(=O)Nc1ccc(F)c(C(=O)c2c[nH]c3ncc(-c4ccc(Cl)cc4)cc23)c1F + Nc1ccc(C#CCN(C(=O)Cc2ncc(C(F)(F)F)cc2C(F)(F)F)c2ccc(F)cc2)nn1 | 88.9%
38 | O=c1[nH]cc(F)c(=O)[nH]1 + COC1C(OC(N)=O)C(O)C(Oc2ccc3c(O)c(NC(=O)c4ccc(O)c(CC=C(C)C)c4)c(=O)oc3c2C)OC1(C)C | 102%
39 | O=c1[nH]cc(F)c(=O)[nH]1 + Nc1ccc(C#CCN(C(=O)Cc2ncc(C(F)(F)F)cc2C(F)(F)F)c2ccc(F)cc2)nn1 | 105%
40 | COc1ccc([C@@H](O)c2cc(-c3ncnc4cc(N5CCOCC5)ccc34)c(F)cc2Cl)nn1 + Cc1cccc(N(C)C(=O)C2C(O)CCN2c2nc(C)cc(C(F)(F)F)c2C#N)c1 | 108%

Same assay, conditions: 997537-175-T-J1-PDC complex spheroid viability, combination with POLQ inhibitors; second compound 0.0316 µM; first compound 0.316 µM; stronger effect = lower value

Row | Structure (SMILES) | viability, T/C
41 | Nc1ccn(C2OC(CO)C(O)C2(F)F)c(=O)n1 (configuration not stated) + Nc1ccc(C#CCN(C(=O)Cc2ncc(C(F)(F)F)cc2C(F)(F)F)c2ccc(F)cc2)nn1 | 87.8%
42 | CCCS(=O)(=O)Nc1ccc(F)c(C(=O)c2c[nH]c3ncc(-c4ccc(Cl)cc4)cc23)c1F + Nc1ccc(C#CCN(C(=O)Cc2ncc(C(F)(F)F)cc2C(F)(F)F)c2ccc(F)cc2)nn1 | 80.7%
43 | O=c1[nH]cc(F)c(=O)[nH]1 + COC1C(OC(N)=O)C(O)C(Oc2ccc3c(O)c(NC(=O)c4ccc(O)c(CC=C(C)C)c4)c(=O)oc3c2C)OC1(C)C | 112%
44 | O=c1[nH]cc(F)c(=O)[nH]1 + Nc1ccc(C#CCN(C(=O)Cc2ncc(C(F)(F)F)cc2C(F)(F)F)c2ccc(F)cc2)nn1 | 109%
45 | COc1ccc([C@@H](O)c2cc(-c3ncnc4cc(N5CCOCC5)ccc34)c(F)cc2Cl)nn1 + Cc1cccc(N(C)C(=O)C2C(O)CCN2c2nc(C)cc(C(F)(F)F)c2C#N)c1 | 103%

Same assay, conditions: 997537-175-T-J1-PDC complex spheroid viability, combination with POLQ inhibitors; second compound 0.0316 µM; first compound 1 µM; stronger effect = lower value

Row | Structure (SMILES) | viability, T/C
46 | Nc1ccn(C2OC(CO)C(O)C2(F)F)c(=O)n1 (configuration not stated) + Nc1ccc(C#CCN(C(=O)Cc2ncc(C(F)(F)F)cc2C(F)(F)F)c2ccc(F)cc2)nn1 | 89.5%
47 | CCCS(=O)(=O)Nc1ccc(F)c(C(=O)c2c[nH]c3ncc(-c4ccc(Cl)cc4)cc23)c1F + Nc1ccc(C#CCN(C(=O)Cc2ncc(C(F)(F)F)cc2C(F)(F)F)c2ccc(F)cc2)nn1 | 70.3%
48 | O=c1[nH]cc(F)c(=O)[nH]1 + COC1C(OC(N)=O)C(O)C(Oc2ccc3c(O)c(NC(=O)c4ccc(O)c(CC=C(C)C)c4)c(=O)oc3c2C)OC1(C)C | 87.8%
49 | O=c1[nH]cc(F)c(=O)[nH]1 + Nc1ccc(C#CCN(C(=O)Cc2ncc(C(F)(F)F)cc2C(F)(F)F)c2ccc(F)cc2)nn1 | 84.9%
50 | COc1ccc([C@@H](O)c2cc(-c3ncnc4cc(N5CCOCC5)ccc34)c(F)cc2Cl)nn1 + Cc1cccc(N(C)C(=O)C2C(O)CCN2c2nc(C)cc(C(F)(F)F)c2C#N)c1 | 108%

Same assay, conditions: 997537-175-T-J1-PDC complex spheroid viability, combination with POLQ inhibitors; second compound 0.0316 µM; first compound 3.16 µM; stronger effect = lower value

Row | Structure (SMILES) | viability, T/C
51 | Nc1ccn(C2OC(CO)C(O)C2(F)F)c(=O)n1 (configuration not stated) + Nc1ccc(C#CCN(C(=O)Cc2ncc(C(F)(F)F)cc2C(F)(F)F)c2ccc(F)cc2)nn1 | 80.7%
52 | CCCS(=O)(=O)Nc1ccc(F)c(C(=O)c2c[nH]c3ncc(-c4ccc(Cl)cc4)cc23)c1F + Nc1ccc(C#CCN(C(=O)Cc2ncc(C(F)(F)F)cc2C(F)(F)F)c2ccc(F)cc2)nn1 | 74.2%
